Data from patent US20120107601A1, “SYSTEMS AND METHODS OF TEMPLATING USING PARTICLES SUCH AS COLLOIDAL PARTICLES” (President and Fellows of Harvard College, priority 2009, published 2012).

Procedure: To ensure that the introduction of the hydrophobic compounds into the template structure would not lead to rearrangement of the particles in the 3D array, some of the templates were sintered prior to the introduction step. Sintering temperatures between 700 and 1200° C. were used to evaluate the conditions needed to form strong interparticle necks without distorting the initial packed structure. Sintering was accomplished under a O2 gas flow of 0.7 L/min (Thermo Scientific Lindberg Blue M Three-Zone Tube Furnace, Cole-Parmer, Vernon Hills, Ill., USA) applying a dwell time period of 2 hours. Introduction of the hydrophobic compounds into the interstices of the packed array of particles was accomplished by first placing the template on a hot plate at a predetermined temperature and afterwards depositing the powdery hydrophobic compound on the top of the heated template. The temperature of the hot plate was adjusted to enable melting of the hydrophobic compound on the template surface. Once in liquid form, the compound was sucked into the interstices of the template structure by capillary forces. […] After fluid introduction, the templates were removed from the hot plate and cooled in air at ambient temperature. The fluid-introduced templates were finally fractured to enable evaluation of the fluid-introduction efficiency in an electron microscope.
Drug-template composites were prepared in the following manner. Templates were prepared from an aqueous colloidal dispersion using the slip-casting method described previously. After slip-casting, the templates were dried in an oven at 110° C. for 12 hours. The templates were then placed on a hotplate at a temperature approximately 5° C. to 10° C. above the melting point of the drug. A small amount of the raw crystalline drug was placed on the surface of the hot template. As the drug was melted, it was drawn into the template by capillary action. These steps were repeated until the template was filled completely. […] The drug-template composites were prepared for dissolution by mild grinding of the sample with a hand-held mortar and pestle.
The samples were prepared for NMR by the following procedure. Unprocessed, crystalline powders (BASF) were dissolved in deuterated solvents at a concentration of approximately 10 mg/mL and filtered through a 0.2 micrometer PTFE filter to remove any solid impurities before running NMR measurements. Drug-silica composites were ground using a hand-held mortar and pestle, dissolved in deuterated solvents at a (drug) concentration of approximately 10 mg/mL and filtered through a 0.2 micrometer PTFE filter to remove the silica template and any additional solid impurities before running NMR measurements. […] Estradiol was dissolved in deuterated DMSO. […] It is, therefore, to be understood that the foregoing embodiments are presented by way of example only and that, within the scope of the appended claims and equivalents thereto, the invention may be practiced otherwise than as specifically described and claimed. The present invention is directed to each individual feature, system, article, material, kit, and/or method described herein. In addition, any combination of two or more such features, systems, articles, materials, kits, and/or methods, if such features, systems, articles, materials, kits, and/or methods are not mutually inconsistent, is included within the scope of the present invention.

SMILES	stability upon melting	visible color change upon melting and infiltration into the composites	melting without decomposition (introduction of molten compound into templates)
Clc1ccccc1C(c1ccccc1)(c1ccccc1)n1ccnc1 [chlotrimazole]	stable upon melting	no visible color change	
C[C@]12CC[C@@H]3c4ccc(O)cc4CC[C@H]3[C@@H]1CC[C@@H]2O [estradiol]	stable upon melting	no visible color change	
C(=C\c1ccccc1)/CN1CCN(C(c2ccccc2)c2ccccc2)CC1 [cinnarizine]	stable upon melting		can be melted without decomposition
CC(C)OC(=O)C(C)(C)Oc1ccc(C(=O)c2ccc(Cl)cc2)cc1 [fenofibrate]			can be melted without decomposition

Now from value to compound:

stability upon melting	visible color change upon melting and infiltration into the composites	melting without decomposition (introduction of molten compound into templates)	SMILES
stable upon melting	no visible color change		CCC(C)n1ncn(-c2ccc(N3CCN(c4ccc(OCC5COC(Cn6cncn6)(c6ccc(Cl)cc6Cl)O5)cc4)CC3)cc2)c1=O (centres unmarked) [itraconazole]
stable upon melting	no visible color change		CC(=O)N1CCN(c2ccc(OCC3COC(Cn4ccnc4)(c4ccc(Cl)cc4Cl)O3)cc2)CC1 (centres unmarked) [ketoconazole]
